Assay results reported in patent US8192962B2, “Processes for detecting toxic substances” (Daikin Industries, Ltd., priority 2001, dated 2012).

Test system: Unknown protein yeast genes
Assay: DNA chip mRNA expression in yeast, unknown protein yeast genes (Table 1)
Type: cell-based, Saccharomyces cerevisiae S288C
Outline: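 S. cerevisiae S288C grown at 25° C. in YPD to log phase, then exposed 2 h to a toxicant at a growth-inhibiting, non-lethal concentration; untreated cells as control. Poly(A) mRNA reverse-transcribed with Cy3-dUTP or Cy5-dUTP, hybridized >12 h at 65° C. to whole-genome yeast DNA chip; value = fluorescence ratio treated/untreated.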

Measured: The level of expressed mRNA in the presence of chemical substance/The level of expressed mRNA in the absence of chemical substance

C[S+](C)[O-] [(15), dimethylsulfoxide]
2.9: yeast gene YPR077C, cells incubated two hours with the chemical substance
1.7: yeast gene YKL071W | yeast gene YKL107W | yeast gene YPR148C
2.2: yeast gene YDL169C | yeast gene YDR476C | yeast gene YML013W | yeast gene YMR068W | yeast gene YNL058C
0.9: yeast gene YAR031W | yeast gene YFL024C | yeast gene YOL026C
6.9: yeast gene YAL018C
1.6: yeast gene YCR013C | yeast gene YGL121C | yeast gene YJL037W
1.5: yeast gene YLL056C | yeast gene YMR160W | yeast gene YPR049C | yeast gene YPR172W
1.2: yeast gene YGR110W | yeast gene YNR051C | yeast gene YPL005W
8.8: yeast gene YOR248W, incubated two hours with chemical substance
2.5: yeast gene YMR315W
9.0: yeast gene YJL149W, incubated two hours with chemical substance
3.9: yeast gene YGR284C
7.5: yeast gene YIL117C, incubated two hours with chemical substance
1.8: yeast gene YOL150C | yeast gene YOR338W
6.8: yeast gene YER106W, incubated two hours with chemical substance
0.7: yeast gene YBR062C | yeast gene YDR250C | yeast gene YDR278C | yeast gene YLR008C | yeast gene YLR297W | yeast gene YLR460C | yeast gene YNL063W | yeast gene YPL180W
5.0: yeast gene YHR209W
1.9: yeast gene YAR064W | yeast gene YMR090W
1.3: yeast gene YBR287W | yeast gene YDL110C | yeast gene YLR226W | yeast gene YOR049C | yeast gene YOR267C
7.1: yeast gene YDL222C, incubated two hours with chemical substance
1.0: yeast gene YDR210W | yeast gene YHR029C | yeast gene YLR346C | yeast gene YLR415C | yeast gene YML041C | yeast gene YOR138C | yeast gene YPL221W
0.5: yeast gene YBR101C, incubated two hours with substance | yeast gene YDR078C, incubated two hours with substance | yeast gene YDR202C, incubated two hours with substance | yeast gene YER124C, incubated two hours with substance | yeast gene YER182W, incubated two hours with substance | yeast gene YGR211W, incubated two hours with substance | yeast gene YJR085C, incubated two hours with substance | yeast gene YLR311C, incubated two hours with substance | yeast gene YLR392C | yeast gene YMR041C, incubated two hours with substance | yeast gene YNL194C | yeast gene YNL253W
2.3: yeast gene YGR139W | yeast gene YPL152W
0.8: yeast gene YER037W | yeast gene YHR054C | yeast gene YHR095W | yeast gene YJR030C | yeast gene YLR427W | yeast gene YML029W | yeast gene YNL026W | yeast gene YNL176C | yeast gene YNL200C | yeast gene YNL211C | yeast gene YOR022C | yeast gene YOR087W | yeast gene YPL168W | yeast gene YPL188W
0.3: yeast gene YGR035C | yeast gene YML079W
0.6: yeast gene YDR435C | yeast gene YOL101C
1.4: yeast gene YAL034C | yeast gene YBL107C | yeast gene YDL027C | yeast gene YDR128W
4.3: yeast gene YPL280W
4.4: yeast gene YOL031C
4.1: yeast gene YBL048W
1.1: yeast gene YBR012C | yeast gene YDR214W | yeast gene YKR040C | yeast gene YOR253W | yeast gene YPL150W
0.4: yeast gene YKR075C
2.1: yeast gene YDR070C
